Test results as given in ChEMBL document CHEMBL1130481, “Structure-activity relationships of carbocyclic influenza neuraminidase inhibitors” (Bioorg Med Chem Lett, 1997).

Experiments:
[1] = target: Neuraminidase (Influenza A virus (A/Puerto Rico/8/1934(H1N1)), UniProt P03468); assay: Inhibition of neuraminidase of influenza A/PR/8/34(H1N1)
[2] = test system: unidentified influenza virus; assay: Concentration required for 50% inhibition of influenza A/WS/33 by plaque reduction assay; type: functional, organism-based

Neuraminidase (Influenza A virus (A/Puerto Rico/8/1934(H1N1)), UniProt P03468), sequence (P03468 whole entry): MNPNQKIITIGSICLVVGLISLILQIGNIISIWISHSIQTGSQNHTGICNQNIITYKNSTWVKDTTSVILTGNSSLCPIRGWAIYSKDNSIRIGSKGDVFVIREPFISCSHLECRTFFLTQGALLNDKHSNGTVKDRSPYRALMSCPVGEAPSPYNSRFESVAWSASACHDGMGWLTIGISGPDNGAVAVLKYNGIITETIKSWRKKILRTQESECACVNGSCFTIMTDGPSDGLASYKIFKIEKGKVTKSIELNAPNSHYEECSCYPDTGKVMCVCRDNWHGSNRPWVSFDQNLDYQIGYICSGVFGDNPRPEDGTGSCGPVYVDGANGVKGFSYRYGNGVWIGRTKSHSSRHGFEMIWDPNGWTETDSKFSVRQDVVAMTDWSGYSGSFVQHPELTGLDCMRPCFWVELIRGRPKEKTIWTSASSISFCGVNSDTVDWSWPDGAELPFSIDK

Question: With CC(=O)N[C@@H]1[C@@H](N)CC(C(=O)O)=C[C@H]1Oc1ccccc1 as the molecule, how does the IC50 [1] read?
Answer: The IC50 was 530 nM.

Question: With CCCO[C@@H]1C=C(C(=O)O)C[C@H](N=C(N)NC)[C@H]1NC(C)=O as the molecule, how does the IC50 [2] read?
Answer: Its IC50 is 0.0016 µM.

Question: What about the IC50 [1] of the same molecule?
Answer: Its IC50 is 4.6 nM.

Question: Which IC50 [1] does the source give for CC(=O)N[C@@H]1[C@@H](N)CC(C(=O)O)=C[C@H]1OC1CCCCC1 here?
Answer: Its IC50 is 60 nM.

Question: For CCCO[C@@H]1C=C(C(=O)O)C[C@H](N)[C@H]1NC(=O)C(F)(F)F, which IC50 [2] is on record?
Answer: Its IC50 is 22 µM.

Question: What about the IC50 [1] of the same molecule?
Answer: The IC50 was 1400 nM.

Question: CCCO[C@@H]1C=C(C(=O)O)C[C@H](N)[C@H]1NS(C)(=O)=O was tested. Which IC50 [1] did it give?
Answer: The IC50 was 25000 nM.

Question: Which IC50 [1] does the source give for CC(=O)N[C@@H]1[C@@H](N)CC(C(=O)O)=C[C@H]1OCCC(F)(F)F here?
Answer: Its IC50 is 225 nM.

Question: Which IC50 [1] does the source give for C=CCO[C@@H]1C=C(C(=O)O)C[C@H](N)[C@H]1NC(C)=O here?
Answer: Its IC50 is 2200 nM.

Question: For CCCO[C@@H]1C=C(C(=O)O)C[C@H](NC=N)[C@H]1NC(C)=O, which IC50 [1] is on record?
Answer: The IC50 was 140 nM.

Question: Which IC50 [1] does the source give for CCCO[C@@H]1C=C(C(=O)O)C[C@H](N)[C@H]1NC(=O)CC here?
Answer: The IC50 was 1500 nM.

Question: For CC(=O)N[C@@H]1[C@@H](N)CC(C(=O)O)=C[C@H]1OC1CCCC1, which IC50 [1] is on record?
Answer: The IC50 was 22 nM.

Question: Which IC50 [2] does the source give for CCCO[C@@H]1C=C(C(=O)O)C[C@H](N)[C@H]1NC(C)=O here?
Answer: The IC50 was 44 µM.

Question: And the IC50 [1]?
Answer: The IC50 was 130 nM.

Question: How did the IC50 [1] turn out when COCO[C@@H]1C=C(C(=O)O)C[C@H](N)[C@H]1NC(C)=O was run?
Answer: The IC50 was 2000 nM.

Question: How did the IC50 [2] turn out when CCCO[C@@H]1C=C(C(=O)O)C[C@H](N=C(N)N)[C@H]1NC(C)=O was run?
Answer: The IC50 was 0.044 µM.

Question: And the IC50 [1]?
Answer: Its IC50 is 1.8 nM.
